In patent US20180099931A1 (AbbVie S.à.r.l., priority 2016, published 2018):
Like-named read-outs stand apart in the source and are kept apart here.

Target: T1, F508delCFTR (Homo sapiens, UniProt P13569, DEL508-508)
T1 construct: expressed in transfected cells; host or cells: CFBE41o- human lung-derived epithelial cells (CFBE4lo-F508delCFTR-HRP), doxycycline-inducible
Experiment: Cell Surface Expression-Horse Radish Peroxidase (CSE-HRP) Assay;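 as to Maximum % activity (with co-corrector): co-corrector and positive control are both the same reference corrector at 2 µM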;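 as to Maximum % activity (without co-corrector): percent of the 2 µM on-plate positive control corrector response above DMSO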
Assay type: cell-based
Conditions: CSE-HRP; for Maximum % activity (with co-corrector): with co-corrector (2 μM); for Maximum % activity (with co-corrector) / Emax: maximum at any tested concentration, normalized to on-plate positive control; for Emax: without co-corrector, read-out: Maximum % activity (without co-corrector)
Experimental: Cell Surface Expression-Horse Radish Peroxidase (CSE-HRP) Assay;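 as to Maximum % activity (with co-corrector): co-corrector and positive control are both the same reference corrector at 2 µM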;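 as to Maximum % activity (without co-corrector): percent of the 2 µM on-plate positive control corrector response above DMSO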
The development was achieved by expressing the F508delCFTR mutation along with a horseradish peroxidase (HRP) in the fourth exofacial loop, and then measuring the HRP activity using luminescence readout from these cells, CFBE4lo-F508delCFTR-HRP, that were incubated overnight with the test corrector compounds, either without or with the co-corrector. […] The test compounds were then added either without or with a co-corrector at the required concentrations and further incubated for 18-24 hours at 33° C. The highest concentration tested was 20 μM with an 8-point concentration response curve using a 3-fold dilution in both the test compound without or with the co-corrector. Three replicate plates were run to determine one EC50. All plates contained negative controls (dimethyl sulfoxide, DMSO) and positive control (2 μM of 3-[(2R,4R)-4-({[1-(2,2-difluoro-1,3-benzodioxol-5-yl)cyclopropyl]carbonyl}amino)-7-methoxy-3,4-dihydro-2H-chromen-2-yl]benzoic acid) as well as on-plate concentration response of the positive control. […] The raw counts from the experiment were analyzed using Accelrys® Assay Explorer v3.3.
1−[3*SDPositive Control+3*SDNegative Control/Absolute(MeanPositive Control−MeanNegative Control)]
wherein “SD” is standard deviation.
The % activity measured at each of the 8 test concentrations of the test compound added either without or with a co-corrector (2 μM of 3-[(2R,4R)-4-({[1-(2,2-difluoro-1,3-benzodioxol-5-yl)cyclopropyl]carbonyl}amino)-7-methoxy-3,4-dihydro-2H-chromen-2-yl]benzoic acid) was normalized to the on-plate positive control using the following formulae:
% activity(Test compound without co-corrector)=[(test compound without co-corrector response−DMSO response)/(positive control response−DMSO response)]*100
% activity(Test compound with co-corrector)=[(test compound with co-corrector response−DMSO response)/(positive control response−DMSO response)]*100
The maximum % activity achieved for the test compound either without or with a co-corrector at any tested concentration is presented in Table 4 along with the respective EC50's calculated using the following general sigmoidal curve with variable Hill slope equation (described as Model 42 in the Accelrys® Assay Explorer v3.3 software):
General sigmoidal curve with concentration, response, top, bottom, EC50 and Hill slope. This model describes a sigmoidal curve with an adjustable baseline, a. The equation can be used to fit curves where response is either increasing or decreasing with respect to the independent variable, “x”.
“x” is a concentration of drug under test. “y” is the response. “a” is the maximum response, and “d” is the minimum response “c” is the inflection point (EC50) for the curve. That is, “y” is halfway between the lower and upper asymptotes when x=c. “b” is the slope-factor or Hill coefficient. The sign of b is positive when the response increases with increasing dose and is negative when the response decreases with increasing dose (inhibition).

[1] = test compound without co-corrector, read-out: EC50 (without co-corrector)
[2] = with co-corrector (2 μM of 3-[(2R,4R)-4-({[1-(2,2-difluoro-1,3-benzodioxol-5-yl)cyclopropyl]carbonyl}amino)-7-methoxy-3,4-dihydro-2H-chromen-2-yl]benzoic acid), read-out: EC50 (with co-corrector)

T1 sequence (P13569 with tags, fused parts or gaps DEL508-508): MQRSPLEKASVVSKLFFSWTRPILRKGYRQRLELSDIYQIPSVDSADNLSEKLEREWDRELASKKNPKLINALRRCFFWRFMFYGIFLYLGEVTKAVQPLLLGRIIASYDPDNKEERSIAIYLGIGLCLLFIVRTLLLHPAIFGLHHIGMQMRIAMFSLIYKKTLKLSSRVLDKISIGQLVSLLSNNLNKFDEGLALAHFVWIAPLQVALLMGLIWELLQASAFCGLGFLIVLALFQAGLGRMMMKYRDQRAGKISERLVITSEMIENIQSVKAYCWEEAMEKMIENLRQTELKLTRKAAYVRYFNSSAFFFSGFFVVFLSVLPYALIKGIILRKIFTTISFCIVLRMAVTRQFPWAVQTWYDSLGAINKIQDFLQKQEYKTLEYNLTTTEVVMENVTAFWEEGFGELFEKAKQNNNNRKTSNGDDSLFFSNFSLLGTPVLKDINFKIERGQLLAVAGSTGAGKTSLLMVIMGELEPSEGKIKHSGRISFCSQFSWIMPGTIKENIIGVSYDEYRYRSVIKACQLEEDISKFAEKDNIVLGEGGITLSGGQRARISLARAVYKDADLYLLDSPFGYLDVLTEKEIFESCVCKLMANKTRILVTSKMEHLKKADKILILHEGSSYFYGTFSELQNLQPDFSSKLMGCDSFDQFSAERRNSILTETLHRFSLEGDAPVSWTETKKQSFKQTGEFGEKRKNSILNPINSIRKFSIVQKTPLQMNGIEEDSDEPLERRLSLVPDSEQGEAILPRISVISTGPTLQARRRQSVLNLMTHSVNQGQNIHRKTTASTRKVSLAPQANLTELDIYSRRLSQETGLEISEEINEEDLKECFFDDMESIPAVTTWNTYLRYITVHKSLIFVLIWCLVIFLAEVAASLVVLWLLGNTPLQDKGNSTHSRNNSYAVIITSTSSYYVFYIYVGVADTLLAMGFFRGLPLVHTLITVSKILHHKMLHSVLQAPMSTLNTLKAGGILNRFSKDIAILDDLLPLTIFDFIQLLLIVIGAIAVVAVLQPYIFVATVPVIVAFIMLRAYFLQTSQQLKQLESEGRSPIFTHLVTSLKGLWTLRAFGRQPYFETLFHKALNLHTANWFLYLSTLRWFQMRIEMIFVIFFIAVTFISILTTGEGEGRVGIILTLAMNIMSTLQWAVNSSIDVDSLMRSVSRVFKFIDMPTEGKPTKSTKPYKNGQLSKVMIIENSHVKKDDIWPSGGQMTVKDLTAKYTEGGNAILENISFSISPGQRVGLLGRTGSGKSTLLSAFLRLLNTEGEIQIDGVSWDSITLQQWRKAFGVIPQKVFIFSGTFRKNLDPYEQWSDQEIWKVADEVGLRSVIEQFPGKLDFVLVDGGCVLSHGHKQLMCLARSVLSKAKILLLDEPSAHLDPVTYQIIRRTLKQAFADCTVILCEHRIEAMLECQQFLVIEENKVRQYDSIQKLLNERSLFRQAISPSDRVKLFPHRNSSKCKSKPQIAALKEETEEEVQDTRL

Row | Structure (SMILES) | EC50 [1] [nM] | EC50 [2] [nM] | Maximum % activity (with co-corrector) | Emax [%]
1 | COc1c(Cl)cccc1CN[C@@H]1[C@@H](C(C)(C)C)[C@H](C(=O)O)N(C(=O)C2CCCCC2)[C@@H]1c1ccccc1 (racemic) [II-7] | 1000 to 10000 | 1000 to 10000 | +++ (≥350) | < 100
2 | CC(C)(C)[C@@H]1[C@@H](NCc2cc(Cl)ccc2OC(F)F)[C@@H](c2ccccc2)N(C(=O)C2CCCCC2)[C@H]1C(=O)O (racemic) [II-8] | 1000 to 10000 | 1000 to 10000 | +++ (≥350) | < 100
3 | CCOc1ccc(Cl)cc1CN[C@@H]1[C@@H](C(C)(C)C)[C@H](C(=O)O)N(C(=O)C2CCCCC2)[C@@H]1c1ccccc1 (racemic) [II-9] | 1000 to 10000 | 1000 to 10000 | +++ (≥350) | < 100
4 | COc1cccc(Cl)c1CN[C@@H]1[C@@H](C(C)(C)C)[C@H](C(=O)O)N(C(=O)C2CCCCC2)[C@@H]1c1ccccc1 (racemic) [II-10] | 1000 to 10000 | 1000 to 10000 | +++ (≥350) | 100 to 200
5 | COc1ccc(Cl)cc1CN[C@@H]1[C@@H](C2CC2)[C@H](C(=O)O)N(C(=O)C2CCCCC2)[C@@H]1c1ccccc1 (racemic) [II-12] | 1000 to 10000 | 1000 to 10000 | +++ (≥350) | 100 to 200
6 | Cc1cc(C(F)(F)F)cc(N[C@@H]2[C@@H](C(C)(C)C)[C@H](C(=O)O)N(C(=O)OC(C)C)[C@@H]2c2ccccc2)n1 (racemic) [II-13] | 1000 to 10000 | 1000 to 10000 | +++ (≥350) | < 100
7 | CC(C)(C)[C@@H]1[C@@H](NCc2cc(C(F)(F)F)cnc2Cl)[C@@H](c2ccccc2)N(C(=O)C2CCCCC2)[C@H]1C(=O)O (racemic) [II-15] | < 1000 | < 1000 | +++ (≥350) | < 100
8 | COc1ccccc1[C@@H]1[C@H](NCc2cc(C(F)(F)F)cnc2Cl)[C@@H](C(C)(C)C)[C@H](C(=O)O)N1C(=O)C1CCCCC1 (racemic) [II-16] | 1000 to 10000 | 1000 to 10000 | +++ (≥350) | < 100
9 | COc1ccc(C(F)(F)F)cc1CN[C@@H]1[C@@H](C(C)(C)C)[C@H](C(=O)O)N(C(=O)C2CCCCC2)[C@@H]1c1ccccc1OC (racemic) [II-17] | 1000 to 10000 | 1000 to 10000 | +++ (≥350) | 100 to 200
10 | COc1cccc([C@@H]2[C@H](NCc3cc(Cl)ccc3OC)[C@@H](C(C)(C)C)[C@H](C(=O)O)N2C(=O)C2CCCCC2)n1 (racemic) [II-19] | 1000 to 10000 | 1000 to 10000 | +++ (≥350) | 100 to 200
11 | COc1ccc(C(F)(F)F)cc1CN[C@@H]1[C@@H](C(C)(C)C)[C@H](C(=O)O)N(C(=O)C2CCCCO2)[C@@H]1c1ccccc1N(C)C (mixture of isomers) [II-20] | 1000 to 10000 | 1000 to 10000 | +++ (≥350) | > 200
12 | COc1ccc(C(F)(F)F)cc1CN[C@@H]1[C@@H](C(C)(C)C)[C@H](C(=O)O)N(C(=O)C2CCCOC2)[C@@H]1c1ccccc1N(C)C (mixture of isomers) [II-21] | 1000 to 10000 | 1000 to 10000 | +++ (≥350) | > 200
13 | COc1cc(C(F)(F)F)ccc1CN[C@@H]1[C@@H](C(C)(C)C)[C@H](C(=O)O)N(C(=O)C2CCCOC2)[C@@H]1c1ccccc1N(C)C (mixture of isomers) [II-22] | 1000 to 10000 | 1000 to 10000 | +++ (≥350) | 100 to 200
14 | COc1cc(Cl)ccc1CN[C@@H]1[C@@H](C(C)(C)C)[C@H](C(=O)O)N(C(=O)C2CCCOC2)[C@@H]1c1ccccc1N(C)C (mixture of isomers) [II-23] | 1000 to 10000 | 1000 to 10000 | +++ (≥350) | 100 to 200
15 | COc1ccc(C(F)(F)F)cc1CN[C@@H]1[C@@H](C(C)(C)C)[C@H](C(=O)O)N(C(=O)C2CCOC(C)(C)C2)[C@@H]1c1ccccc1N(C)C (mixture of isomers) [II-24] | 1000 to 10000 | 1000 to 10000 | +++ (≥350) | > 200
16 | COc1ccc(Cl)cc1CN[C@@H]1[C@@H](C(C)(C)C)[C@H](C(=O)O)N(C(=O)C2CCOC(C)(C)C2)[C@@H]1c1ccccc1N(C)C (mixture of isomers) [II-25] | 1000 to 10000 | 1000 to 10000 | +++ (≥350) | > 200
17 | COc1cc(Cl)ccc1CN[C@@H]1[C@@H](C(C)(C)C)[C@H](C(=O)O)N(C(=O)C2CCOC(C)(C)C2)[C@@H]1c1ccccc1N(C)C (mixture of isomers) [II-26] | 1000 to 10000 | 1000 to 10000 | +++ (≥350) | > 200
18 | COC(=O)N1CCC[C@H](C(=O)N2[C@H](c3ccccc3)[C@H](Nc3cc(C(F)(F)F)cc(C)n3)[C@@H](C(C)(C)C)[C@@H]2C(=O)O)C1 (racemic) [II-27] | 1000 to 10000 | 1000 to 10000 | +++ (≥350) | > 200
19 | COc1ccc(Cl)cc1CN[C@@H]1[C@@H](C(C)(C)C)[C@H](C(=O)O)N(C(=O)OC(C)C)[C@@H]1c1cccnc1N(C)C (racemic) [II-28] | 1000 to 10000 | 1000 to 10000 | +++ (≥350) | > 200
20 | COc1cc(Cl)ccc1CN[C@@H]1[C@@H](C(C)(C)C)[C@H](C(=O)O)N(C(=O)OC(C)C)[C@@H]1c1cccnc1N(C)C (racemic) [II-29] | 1000 to 10000 | 1000 to 10000 | +++ (≥350) | > 200
21 | COc1ncc(F)cc1CN[C@@H]1[C@@H](C(C)(C)C)[C@H](C(=O)O)N(C(=O)C2CCCCC2)[C@@H]1c1ccccc1 (racemic) [II-30] | 1000 to 10000 | 1000 to 10000 | +++ (≥350) | 100 to 200
22 | CC(C)(C)[C@@H]1[C@@H](NCc2ccccc2C(F)(F)F)[C@@H](c2ccccc2)N(C(=O)C2CCCCC2)[C@H]1C(=O)O (racemic) [II-31] | 1000 to 10000 | 1000 to 10000 | +++ (≥350) | < 100
23 | COc1ccc(C(F)(F)F)cc1CN[C@@H]1[C@@H](C(C)(C)C)[C@H](C(=O)O)N(C(=O)Cc2ccccc2)[C@@H]1c1ccccc1 (racemic) [II-32] | 1000 to 10000 | 1000 to 10000 | +++ (≥350) | < 100
24 | COc1ccc(C(F)(F)F)cc1CN[C@H]1[C@H](C(C)(C)C)[C@@H](C(=O)O)N(C(=O)[C@H](OC)c2ccccc2)[C@H]1c1cccnc1N(C)C (racemic) [II-33] | 1000 to 10000 | 1000 to 10000 | +++ (≥350) | 100 to 200
25 | COc1ccc(C(F)(F)F)cc1CN[C@@H]1[C@@H](C(C)(C)C)[C@H](C(=O)O)N(C(=O)[C@@H]2CCCO[C@@H]2C)[C@@H]1c1ccccc1 (racemic) [II-34] | 1000 to 10000 | 1000 to 10000 | +++ (≥350) | > 200
26 | COc1ccc(C(F)(F)F)cc1CN[C@@H]1[C@@H](C(C)(C)C)[C@H](C(=O)O)N(C(=O)[C@H]2CCCO[C@H]2C)[C@@H]1c1ccccc1 (racemic) [II-35] | 1000 to 10000 | 1000 to 10000 | +++ (≥350) | > 200
